Results published in patent EP0167553B1, “NEW THERAPEUTICAL APPLICATION OF AN INDANE DIONE DERIVATIVE AND PHARMACEUTICAL COMPOSITIONS INTENDED TO SAID UTILIZATION” (priority 1983, dated 1985).

System: Rat Wistar
Experiment: Hyperlipidaemia induced by Triton WR 1339 injection
Format: in vivo
Design: Triglycérides, score par rapport au Procétofène 250 mg/kg: scale not given here
Excerpt: L'hyperlipidémie par injection de Triton WR 1339 (marque de fabrique), réalisée chez le Rat Wistar, est antagonisée ou diminuée par l'administration d'agents hypolipémiants.
• - Rats Wistar mâles. • - Poids corporel: 150 -180 grammes. • - Animaux E.O.P.S. (Exempts d'Organisme Pathogène Spécifique). • - Alimentation UAR A04 • - Eau de boisson à volonté • - 6 animaux par lot de traitement et par cage MAKROLON SAFI (marque de fabrique) 60 X 40 cm, sur litière de copeaux de bois dépoussiérés • - Cages placées dans un module animalerie climatisé (19 à 21°C) à degré hygrométrique constant (40 à 60 p.100), dans lequel l'air est renouvelé 10 fois par heure, 12 heures d'éclairement par jour.
• . - 18 h: mise à jeun. • . Temps 0 - administration du Triton WR 1339® (400 mg/kg IP.). • . + 10 mn: administration du produit étudié. • - + 6 h: 1er prélèvement sanguin au sinus rétro-orbitaire. • . + 24 h: 2ème prélèvement sanguin au sinus rétro-orbitaire.
L'essai comporte 8 lots dont un lot témoin (animaux sains) et un lot témoin triton (Tableau I).

[1] = 125 mg/kg, 6 heures after Triton
[2] = 125 mg/kg, 24 heures after Triton
[3] = 250 mg/kg, 6 heures after Triton
[4] = 250 mg/kg, 24 heures after Triton
[5] = 500 mg/kg, 6 heures after Triton
[6] = 500 mg/kg, 24 heures after Triton
[7] = 750 mg/kg, 6 heures after Triton
[8] = 750 mg/kg, 24 heures after Triton

Structure (SMILES): COc1ccc(C(=O)CC2(O)C(=O)c3ccccc3C2=O)cc1OC [Produit de l'invention, 2-[(3,4-dimethoxybenzoyl)methyl] 2-hydroxy 1,3-dioxo indane]
- Chol. Total, score par rapport au Procétofène 250 mg/kg [1]: 2.44
- Score Total par rapport au Procétofène 250 mg/kg [1]: 2.75
- Triglycérides, score par rapport au Procétofène 250 mg/kg [1]: 0.31
- Chol. HDL/ LDL, score par rapport au Procétofène 250 mg/kg [2]: 1.40
- Chol. Total, score par rapport au Procétofène 250 mg/kg [2]: 0.28
- Score Total par rapport au Procétofène 250 mg/kg [2]: 1.94
- Triglycérides, score par rapport au Procétofène 250 mg/kg [2]: 0.26
- Chol. HDL/ LDL, score par rapport au Procétofène 250 mg/kg [3]: 0.87
- Chol. Total, score par rapport au Procétofène 250 mg/kg [3]: 1.15
- Lipides Totaux, score par rapport au Procétofène 250 mg/kg [3]: 0.92
- Score Total par rapport au Procétofène 250 mg/kg [3]: 3.74
- Triglycérides, score par rapport au Procétofène 250 mg/kg [3]: 0.80
- Chol. HDL/ LDL, score par rapport au Procétofène 250 mg/kg [4]: 1.10
- Chol. Total, score par rapport au Procétofène 250 mg/kg [4]: 1.13
- Lipides Total, score par rapport au Procétofène 250 mg/kg [4]: 1.56
- Score Total par rapport au Procétofène 250 mg/kg [4]: 4.64
- Triglycérides, score par rapport au Procétofène 250 mg/kg [4]: 0.85
- Chol. HDL/ LDL, score par rapport au Procétofène 250 mg/kg [5]: 2.00
- Chol. Total, score par rapport au Procétofène 250 mg/kg [5]: 0.35
- Lipides Totaux, score par rapport au Procétofène 250 mg/kg [5]: 1.00
- Score Total par rapport au Procétofène 250 mg/kg [5]: 4.95
- Triglycérides, score par rapport au Procétofène 250 mg/kg [5]: 1.60
- Chol. HDL/ LDL, score par rapport au Procétofène 250 mg/kg [6]: 0.80
- Chol. Total, score par rapport au Procétofène 250 mg/kg [6]: 0.75
- Lipides Total, score par rapport au Procétofène 250 mg/kg [6]: 1.62
- Score Total par rapport au Procétofène 250 mg/kg [6]: 3.66
- Triglycérides, score par rapport au Procétofène 250 mg/kg [6]: 0.49
- Chol. Total, score par rapport au Procétofène 250 mg/kg [7]: 0.78
- Lipides Totaux, score par rapport au Procétofène 250 mg/kg [7]: 0.14
- Score Total par rapport au Procétofène 250 mg/kg [7]: 1.72
- Triglycérides, score par rapport au Procétofène 250 mg/kg [7]: 0.80
- Chol. HDL/ LDL, score par rapport au Procétofène 250 mg/kg [8]: 0.40
- Chol. Total, score par rapport au Procétofène 250 mg/kg [8]: 0.61
- Score Total par rapport au Procétofène 250 mg/kg [8]: 1.73
- Triglycérides, score par rapport au Procétofène 250 mg/kg [8]: 0.72
- hyperlipémie provoquée par le Triton WR 1339 (dès la dose de 125 mg/kg par voie orale, Rat): antagonisée au diminuée
